test: Henry solubility constant Hcp at 298.15 K (mol/(m3 Pa)); conditions: reference: Shiu and Mackay (1997)

| SMILES | Henry solubility constant Hcp |
| --- | --- |
| c1cc2c3c(cccc3c1)CC2 [acenaphthene] | 0.062 |
| c1ccc2ccccc2c1 [naphthalene] | 0.022 |
| Clc1ccccc1 [chlorobenzene] | 0.0032 |
| c1ccc2c(c1)Cc1ccccc1-2 [2,3-benzindene] | 0.1 |
| CC(=O)c1ccccc1 [1-phenylethanone] | 0.93 |
| Clc1cccc2ccccc12 [1-chloronaphthalene] | 0.028 |
| c1ccc2cc3ccccc3cc2c1 [anthracene] | 0.13 |
| c1ccc2c(c1)ccc1ccccc12 [phenanthrene] | 0.28 |
| Clc1cc(Cl)c(Cl)c(Cl)c1 [1,2,3,5-tetrachlorobenzene] | 0.0063 |
| CCCCCCCO [1-heptanol] | 0.18 |
| Cc1cccc2c(C)cccc12 [1,5-dimethylnaphthalene] | 0.028 |
| CCCCCC(C)=O [2-heptanone] | 0.058 |
| Clc1ccc2ccccc2c1 [2-chloronaphthalene] | 0.03 |
| c1ccc(-c2ccccc2)cc1 [biphenyl] | 0.032 |
| Cc1cccc2ccccc12 [1-methylnaphthalene] | 0.041 |
| Clc1cccc(Cl)c1Cl [1,2,3-trichlorobenzene] | 0.0079 |
| CCCC(C)=O [2-pentanone] | 0.12 |
| Brc1ccccc1 [bromobenzene] | 0.004 |
| Clc1ccc(Cl)cc1 [1,4-dichlorobenzene] | 0.0041 |
| CC(C)CO [2-methyl-1-propanol] | 0.37 |

Source: Sander's compilation of Henry's law constants (doi:10.1021/je960218u)
